According to US7455861B2, “Angelicae sinensis extracts useful for treatment of cancers” (priority 2004, dated 2008):
In brackets after ≈: the same amount, converted by molar mass.

Key:
ETS-1 = test: RT-PCR of ETS-1 in HUVEC; type: cell-based, human
RG2 = test: Cytotoxicity (IC50) on RG2; type: cell-based, rat; details: for IC50: Table 1, value in parentheses; for Cytotoxicity, IC50 RG2: cancer cells, Table 1
Protocol: (§1) Human tumor cell lines (MCF-7, CL1-5, HT-29, Caco-2), human umbilical vascular endothelial cells (HUVEC), and human dermal fibroblasts (HDF) were tested for sensitivity on Angelicae sinensis extracts, ligustilide, n-butylidenephthalide and its derivatives in vitro. The DBTRG-05MG, BCM, HL-60 and J5 cells were grown in RPMI-1640 medium containing 10% fetal calf serum and 100 ng/ml penicillin and […] streptomycin at 37° C. in a humidified atmosphere with 5% CO2. The G5T/VGH, RG2, Ni 8, SVEC and Balb/3T3 cells were cultured in DMEM with 10% fetal calf serum and 100 ng/ml penicillin and […] streptomycin at 37° C. in 5% CO2. Mycoplasma infection of the culture cells was excluded by PCR screening methods before each experiment.
(§2) The effects on cell viability after the treatments with different concentrations of the Angelicae sinensis extracts or the active components purified therefrom were evaluated by modified MTT assay in triplicate. Briefly, the cells (5×10^3) were incubated into 96-well plates containing 100 μl of a growth medium. The cells were permitted to adhere for 24 hours, then treated with 100 μl of the herbal extracts or the active components dissolved in the medium. The control contained DMSO of <0.02% (v/v). After 24, 48 and 72 h incubation, the drug-containing medium was replaced by 50 μl of fresh medium, and cells in each well were incubated in 50 μl of 400 μg/ml MTT for 6-8 h. The medium and MTT were removed later and 100 μl of DMSO was added to each well and to the control, to dissolve the soluble components. Absorbance at 550 nm of the solutions was measured with MRX Microtiter Plate Luminometer (DYNEX, USA). The absorbance of untreated cells was considered as 100%. To evaluate the effects of the extracts or the active components on cell growth rate of GBM cells, 5×10^3 exponentially growing cells were treated with different concentrations for 24, 48, or 72 h. The cytotoxicity of each test substance was determined as an IC50 value, which represents the drug concentration required to cause 50% inhibition. All experiments in this study were performed in triplicate.

HDF = test: Cytotoxicity (IC50) on HDF; type: cell-based, human; details: normal cells; for Cytotoxicity, IC50 HDF: Table 1; for IC50: Table 1, value in parentheses
Description: (§3) Human umbilical vascular endothelial cells (HUVECs) were purchased from Cascade Biologics, Inc. (USA). HUVECs were maintained in Medium 200 (Cascade Biologics, Inc. USA) supplemented with 10% fetal bovine serum (FBS; Gibco BRL) and low serum growth supplement (LSGS; Cascade Biologics, Inc. USA). Human dermal fibroblasts (HDFs) were purchased from Cascade Biologics, Inc. (USA). HDFs were maintained in Medium 106 (Cascade Biologics, Inc. USA) supplemented with 10% FBS and low serum growth supplement (LSGS; Cascade Biologics, Inc. USA). The human colon adenocarcinoma cell lines HT-29 were purchased from the ATCC (Manassas, Va. USA). HT-29 were maintained in Dubecco's Modified Eagle Medium (DMEM; Gibco) supplemented with 10% FBS and 100 ng/ml penicillin and […] streptomycin (Life Technologies, Inc., Grand Island, N.Y., USA). For the proliferation assay of cell in log growth (G1), the cells were harvested at 60-80% of confluence. 100 μl of cell suspensions were dispensed onto a Falcon 96-well plates The densities were 6×10^3 cells/well in Medium 200 (for HUVECs), and 9×10^3 cells/well in Medium 106 (for HDFs), and 5×10^3 cells/well in DMEM (for HT-29) supplemented with 10% FBS. The cells were pre-incubated for 24 hours in an incubator (Humidified atmosphere, e.g., at 37° C., 5% CO2). 10 μl of toxicant of various concentrations were added into the culture medium of the plate. The cell cultures were incubated for 48 hours. 10 μl of the Cell Counting Kit-8 (CCK-8; DOJINDO) solution were added and the cell cultures incubated for 1˜4 hours in the incubator. The absorbance was measured at 450 nm, using a microplate reader with a reference wavelength at 600 nm or over.
as §1
as §2, with “To evaluate the effects of the extracts or the active components on cell growth rate of GBM cells, 5×10^3 exponentially growing cells were treated with different concentrations for 24, 48, or 72 h. The cytotoxicity of each test substance was determined as an IC50 value, which represents the drug concentration required to cause 50% inhibition. All experiments in this study were performed in triplicate.” left out

HUVEC [1] = test: Cytotoxicity (IC50) on HUVEC; type: cell-based, human; details: normal cells; for Cytotoxicity, IC50 HUVEC: Table 1; for IC50: Table 1, value in parentheses
Description: as §3, §1, §2

HUVEC [2] = test: Tube formation of HUVEC; type: cell-based, human
MMP-2 = test: RT-PCR of MMP-2 in HUVEC; type: cell-based, human
DBTRG-05MG = test: Cytotoxicity (IC50) on DBTRG-05MG; type: cell-based; details: Homo sapiens, read-out: Cytotoxicity (IC50) DBTRG-05MG
Protocol: as §1
as §2, with “All experiments in this study were performed in triplicate.” left out

G5T/VGH = test: Cytotoxicity (IC50) on G5T/VGH; type: cell-based; details: Homo sapiens; Table 2
Protocol: as §1
The effects on cell viability after the treatments with different concentrations of the Angelicae sinensis extracts or the active components purified therefrom were evaluated by modified MTT assay in triplicate. Briefly, the cells (5×10^3) were incubated into 96-well plates containing 100 μl of a growth medium. The cells were permitted to adhere for 24 hours, then treated with 100 μl of the herbal extracts or the active components dissolved in the medium. The control contained DMSO of <0.02% (v/v). […] Absorbance at 550 nm of the solutions was measured with MRX Microtiter Plate Luminometer (DYNEX, USA). The absorbance of untreated cells was considered as 100%. […]

[3] = Cytotoxicity (IC50) on HUVEC; type: cell-based, human; details: human
Description: as §3, §1, §2

brain tumor cell lines = test: Cytotoxicity (IC50) on brain tumor cell lines, pooled statement; type: cell-based; details: GBM tumors not sensitive
Protocol: as §2

| SMILES | Inhibition RT-PCR ETS-1 (ETS-1) [µg/mL] | IC50 (RG2) [µM] | Cytotoxicity, IC50 RG2 (RG2) [µg/mL] | Cytotoxicity, IC50 HDF (HDF) [µg/mL] | IC50 (HDF) [µM] | Cytotoxicity, IC50 HUVEC (HUVEC [1]) [µg/mL] | IC50 (HUVEC [1]) [µM] | Inhibition Tube Formation (HUVEC [2]) [µg/mL] | Inhibition RT-PCR MMP-2 (MMP-2) [µg/mL] | IC50 (DBTRG-05MG) [µg/mL] | IC50 (G5T/VGH) [µg/mL] | IC50 [3] [µg/mL] | IC50 GBM tumors (brain tumor cell lines) [µg/mL] |
| --- | --- | --- | --- | --- | --- | --- | --- | --- | --- | --- | --- | --- | --- |
| CCC/C=C1/OC(=O)c2ccccc21 [BP-E form] | 159.4 | > 106 | >20 | >100 | > 532 | >100 | > 532 |  |  |  |  |  |  |
| CCC/C=C1\OC(=O)c2ccccc21 [BP-Z form] | 159.4 | > 106 | >20 | 65.25 | 347 | >100 | > 532 | 159.4 | 531.3 |  |  |  |  |
| CC(=O)O[C@H]1C(=O)[C@@]2(C)[C@H]([C@H](OC(=O)c3ccccc3)[C@]3(O)C[C@H](OC(=O)[C@H](O)[C@@H](NC(=O)c4ccccc4)c4ccccc4)C(C)=C1C3(C)C)[C@]1(OC(C)=O)CO[C@@H]1C[C@@H]2O [Taxol, reference compound] |  |  |  |  |  |  |  |  |  | 61 ± 3.3 (≈ 71.4 µM) | < 0.1 | < 0.1 |  |
| O=NN(CCCl)C(=O)NCCCl [carmustin, reference compound] |  |  |  |  |  |  |  |  |  |  |  |  | > 100 |
